# Structures can show the parent of a compound that is named as a salt.
# Experiments:
# Male Wistar rats = test: Sucrose preference test (chronic mild stress model, CMS); assay type: in vivo, rat; conditions: for effect on sucrose intakes in control animals, compared to vehicle: control rats; for effect on sucrose intakes in control animals, compared to vehicle / effect on sucrose consumption in stressed animals, compared to vehicle: daily IP for five weeks, imipramine 10 mg/kg, vortioxetine 10 mg/kg, nalmefene 1 mg/kg, 1% sucrose solution; for effect on sucrose consumption in stressed animals, compared to vehicle: rats exposed to chronic mild stress; for weeks of treatment after which increase in sucrose intakes reached statistical significance versus Week 0 / overall effect in the CMS model (conclusion): stressed animals; for weeks of treatment after which increase in sucrose intakes reached statistical significance versus Week 0: daily IP; for overall effect in the CMS model (conclusion): five weeks of treatment
# From the text: Rodents inherently have an interest in sweet foods or liquids. Exposure to stressfull conditions reduces the interest for sweet foods or solutions, indicating a reduced sensitivity to rewards. This can be assessed for example in a sucrose preference test, where the stress-induced reduction of intake of a sucrose solution is used as a measure of anhedonia (reduces sensitivity to rewards). This stress-induced reduction of sucrose intake in the rat is a well-established animal model of anhedonia (Nielsen, Arnt and Sánchez. Intracranial self-stimulation and sucrose intake differ as hedonic measures following chronic mild stress: interstrain and interindividual differences. Behav. Brain. Res. (2000), 107 (1-2): 21-33).
# Male Wistar rats (Charles River, Germany) were brought into the laboratory one month before the start of the experiment. Except as described below, the animals were singly housed with food and water freely available, and were maintained on a 12-h light/dark cycle (lights on at 08.00) and in a constant temperature (22±2° C.) and humidity (50±5%) conditions. All procedures used in this study are conformed to the rules and principles of the 86/609/EEC Directive, and were approved by the Local Bioethical Committee at the Institute of Pharmacology, Polish Academy of Sciences, Krakow, Poland.
# After a period of 3 weeks of adaptation to laboratory and housing conditions, the animals were trained to consume a 1% sucrose solution; training consisted of nine 1 h baseline tests in which sucrose was presented, in the home cage, following 14 h food and water deprivation. The sucrose intake was measured by weighing pre-weighed bottles containing the sucrose solution, at the end of the test. Subsequently, sucrose consumption was monitored, under similar conditions, at weekly intervals throughout the whole experiment.
# On the basis of their sucrose intakes in the final baseline test, the animals were divided into two matched groups. One group of animals was subjected to the chronic mild stress procedure for a period of 8 consecutive weeks. Each week of stress regime consisted of: two periods of food or water deprivation, two periods of 45 degree cage tilt, two periods of intermittent illumination (lights on and off every 2 h), two periods of soiled cage (250 ml water in sawdust bedding), one period of paired housing, two periods of low intensity stroboscopic illumination (150 flashes/min), and three periods of no stress. All stressors were 10-14 h of duration and were applied individually and continuously, day and night. […] They were deprived of food and water for 14 h preceding each sucrose test, but otherwise food and water were freely available in the home cage.
# (§1) On the basis of their sucrose intakes following 2 weeks of initial stress, both stressed and control groups were each divided further into matched subgroups (n=8), and for subsequent five weeks they received daily IP administration of vehicle (0.9% saline, 1 ml/kg), Vortioxetine (10 mg/kg), Nalmefene (1 mg/kg), joint injections of Vortioxetine (10 mg/kg) and Nalmefene (1 mg/kg) or imipramine HCl (10 mg/kg) as the reference treatment. The volume of all injections was 1 ml/kg. The drugs were administered at approx. 10.00 and the weekly sucrose tests were carried out 24 h following the last drug injections. After five weeks all treatments were terminated and one additional sucrose test was carried out following one week of withdrawal. Stress was continued throughout the entire period of treatment and withdrawal.
# The Fisher's LSD test was used for post-hoc comparisons of means.
# [1] = Body weights in the CMS study
# Experimental: as §1
# κ-opioid receptors = κ-opioid receptors (Homo sapiens, UniProt P41145); conditions: in vitro studies; cited from earlier work
# μ-opioid receptors = μ-opioid receptors (Homo sapiens, UniProt P35372); conditions: in vitro studies; cited from earlier work
# δ-opioid receptors = δ-opioid receptors (Homo sapiens, UniProt P41143); conditions: in vitro studies; cited from earlier work
# Sequence of δ-opioid receptors (P41143 whole entry): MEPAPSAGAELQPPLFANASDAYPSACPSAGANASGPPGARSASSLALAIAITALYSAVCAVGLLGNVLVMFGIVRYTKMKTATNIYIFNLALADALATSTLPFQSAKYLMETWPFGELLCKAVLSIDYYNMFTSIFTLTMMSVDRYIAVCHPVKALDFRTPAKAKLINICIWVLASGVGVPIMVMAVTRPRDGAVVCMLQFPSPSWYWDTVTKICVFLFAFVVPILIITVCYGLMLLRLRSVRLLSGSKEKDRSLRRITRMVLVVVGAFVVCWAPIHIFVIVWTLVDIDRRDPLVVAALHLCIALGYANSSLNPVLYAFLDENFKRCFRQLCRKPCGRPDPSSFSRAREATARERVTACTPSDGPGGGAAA
# Sequence of κ-opioid receptors (P41145 whole entry): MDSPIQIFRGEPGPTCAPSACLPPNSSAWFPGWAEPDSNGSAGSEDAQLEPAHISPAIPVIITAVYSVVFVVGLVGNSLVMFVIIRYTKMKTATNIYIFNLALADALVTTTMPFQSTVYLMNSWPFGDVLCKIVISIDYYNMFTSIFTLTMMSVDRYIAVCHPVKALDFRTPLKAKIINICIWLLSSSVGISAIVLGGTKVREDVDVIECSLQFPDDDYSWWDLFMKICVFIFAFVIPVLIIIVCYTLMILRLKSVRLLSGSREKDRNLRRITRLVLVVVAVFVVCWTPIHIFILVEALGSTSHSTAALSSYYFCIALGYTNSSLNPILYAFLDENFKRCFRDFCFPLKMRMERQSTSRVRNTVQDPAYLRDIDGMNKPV
# Sequence of μ-opioid receptors (P35372 whole entry): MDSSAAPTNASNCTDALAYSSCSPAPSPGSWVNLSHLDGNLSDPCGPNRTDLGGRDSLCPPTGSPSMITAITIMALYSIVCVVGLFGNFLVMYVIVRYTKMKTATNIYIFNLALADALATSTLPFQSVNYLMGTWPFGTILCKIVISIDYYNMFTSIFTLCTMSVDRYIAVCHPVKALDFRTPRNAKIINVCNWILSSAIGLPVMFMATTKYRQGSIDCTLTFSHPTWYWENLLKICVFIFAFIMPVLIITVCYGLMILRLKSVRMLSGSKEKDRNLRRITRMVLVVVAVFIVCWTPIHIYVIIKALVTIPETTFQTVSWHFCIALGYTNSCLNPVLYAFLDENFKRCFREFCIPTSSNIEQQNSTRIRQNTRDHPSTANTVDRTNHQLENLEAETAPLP
SMILES,"effect on sucrose intakes in control animals, compared to vehicle (Male Wistar rats)","effect on sucrose consumption in stressed animals, compared to vehicle (Male Wistar rats)",weeks of treatment after which increase in sucrose intakes reached statistical significance versus Week 0 (Male Wistar rats),overall effect in the CMS model (conclusion) (Male Wistar rats),"Body weights after five weeks of treatment (means ± SEM), Controls ([1]; control rats, daily IP) [g]","effect on body weight compared to vehicle-treated group ([1]; rat, in vivo)","Body weights after five weeks of treatment (means ± SEM), Stressed ([1]; stressed rats, daily IP) [g]","Body weights after five weeks of treatment (means ± SEM), Controls ([1]; rat, in vivo, ip) [g]","Body weights after five weeks of treatment (means ± SEM), Stressed ([1]; rat, in vivo, ip) [g]","effect on body weight compared to vehicle-treated group ([1]; control and stressed animals, decreases p<0.05 in controls, NS in stressed)",functional activity at the κ receptor (κ-opioid receptors),functional activity at the μ receptor (μ-opioid receptors),functional activity at the δ receptor (δ-opioid receptors)
"CN(C)CCCN1c2ccccc2CCc2ccccc21 [Imipramine, imipramine HCl]",no significant effect,gradually increased,three,fully reversed,350 ± 7,decreased,326 ± 7,,,,,,
"Cc1ccc(Sc2ccccc2N2CCNCC2)c(C)c1 [Vortioxetine, 1-[2-(2,4-dimethyl-phenylsulfanyl)-phenyl]-piperazine]",no significant effect,no significant effect,,not effective,,decreased,,348 ± 9,328 ± 9,,,,
"C=C1CC[C@@]2(O)[C@H]3Cc4ccc(O)c5c4[C@@]2(CCN3CC2CC2)[C@H]1O5 [Nalmefene, 17-(cyclopropylmethyl)-4,5-alpha-epoxy-6-methylenemorphinan-3,14-diol]",no effect,gradually increased,four,effective,371 ± 9,,355 ± 11,,,did not affect,partial agonist activity,antagonist activity,antagonist activity
